Assay results as given in US20090170900A1, “DOSING REGIMEN FOR WEIGHT LOSS” (UTI LIMITED PARTNERSHIP, priority 2005, published 2009).
Read-outs that look alike come from different tables or passages of the source.

Columns and labels:
CB1 = CB1 (Homo sapiens, UniProt P21554); settings: cited from earlier work
[1] = Body weight change with administration every 5 days (Example 3); settings: 5 mg/kg every 5 days, p<0.05
Method: (§3) Food was available for 17 h each day starting at 16:00 h. Food and water were presented in inverted glass bottles that were attached to the outside of the cage in order to minimize spillage. […] Food intake and body weight measurements were recorded daily.

[2] = Food intake after a single intraperitoneal injection in prefed, moderately obese male Lewis rats (Example 1); settings: for cumulative food intake: AM-251 5 mg/kg i.p., Ensure Plus
Method: Vanilla-flavoured Ensure Plus (Ross Laboratories, Saint-Laurent, Quebec, Canada) was used as food on account of its palatability, and to reduce the risk of spillage. […] Food and water were presented in inverted glass bottles that attached to the outside of the cage. Animals were habituated to handling and testing procedures 3 weeks prior to testing on liquid diet.
The initial food presented between 1600 and 1700 h (prefeed) was designed to produce partial satiety as previously described in C.
Food bottles were put back on at 1800 h. Food intake measurements were taken daily as well as at 1900, 2000, and 2100 h.

[3] = Weight gain or loss after a single dose of 1.25 or 2.5 mg/kg (Example 2); assay type: in vivo, rat; settings: for weight gain or loss: over 10 days
Method: (§1) Food intake and weight measurements were taken daily. […] Animals were assigned into vehicle, 1.25 or 2.5 mg/kg conditions via a counterbalance design.

[4] = Body weight gain with daily or twice-weekly intragastric injection (Example 4); assay type: in vivo, rat; settings: low doses by the intragastric route, 28 days
Description: (§2) Each of the rats was assigned to one of five groups. […] These groups were compared to the group with daily injection of vehicle (n=8).

[5] = Daily food intake with administration every 5 days (Example 3); settings: 5 mg/kg every 5 days
Method: as §3

[6] = cited from earlier work
[7] = Daily food intake after a single dose of 1.25 or 2.5 mg/kg (Example 2); assay type: in vivo, rat
Method: as §1

[8] = determined from behavioral tests; cited from earlier work
[9] = Two-flavored conditioned aversion test (Example 4); assay type: in vivo, rat; settings: for short-term percentage preference for the primary flavor associated with drug delivery: 15 min; for percentage daily preference for the flavor associated with drug delivery: 17 hr
Description: Another objective was to determine whether the animals were responding negatively to the drug as determined by the use of a two-flavored conditioned aversion test in which the drug was repeatedly paired with one flavor of liquid diet while the vehicle injection was paired with the other flavor. There were ten training trials before the test procedure was done so the rats had sufficient time to make associations between flavors and internal consequences. This test procedure involved giving the rats two bottles, containing the liquid diets flavored with chocolate and strawberry, and determining the individual rat's preference for one or the other of the flavors. A conditioned aversion was established if the rat chose against the flavor associated with the drug injections.
as §2
This conditioning procedure was done for 10 exposures before the actual conditioned aversion test was done on day 33. This aversion test was done by allowing each rat exposure for 17 hrs to two bottles, one containing chocolate-flavored and the other containing strawberry-flavored liquid diet. No drugs or vehicles were injected on this day. […] Moreover, the rats were forced to taste both flavors for three or four licks before the diets were made freely available to them so the rats were fully aware that two flavors were present. […] The 17-hour tests allowed repeated association between the internal consequences of the drug and the taste of the drug associated primary flavor.

[10] = animal model of temporal lobe epilepsy; cited from earlier work
[11] = cited from earlier work; remark: listed apart in the source
[12] = 5 and 20 mg doses; human trials; cited from earlier work
[13] = mice; cited from earlier work
[14] = rats injected daily (intragastric)

Chain of CB1 (P21554 whole entry, species assumed): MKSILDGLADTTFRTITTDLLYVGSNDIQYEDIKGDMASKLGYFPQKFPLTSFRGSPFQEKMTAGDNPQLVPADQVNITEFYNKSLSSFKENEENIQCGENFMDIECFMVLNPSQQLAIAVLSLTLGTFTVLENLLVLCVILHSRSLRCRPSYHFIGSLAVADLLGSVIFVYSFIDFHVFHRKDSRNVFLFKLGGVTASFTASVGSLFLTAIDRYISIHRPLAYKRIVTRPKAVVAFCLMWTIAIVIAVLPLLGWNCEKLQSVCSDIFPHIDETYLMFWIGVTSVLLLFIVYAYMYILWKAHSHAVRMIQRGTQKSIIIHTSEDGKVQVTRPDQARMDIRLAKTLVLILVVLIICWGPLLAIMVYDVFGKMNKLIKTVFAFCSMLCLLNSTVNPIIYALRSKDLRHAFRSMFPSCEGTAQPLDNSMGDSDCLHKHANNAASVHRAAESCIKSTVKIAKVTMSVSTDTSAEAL

## Cc1c(C(=O)NN2CCOCC2)nn(-c2ccc(Cl)cc2Cl)c1-c1ccc(I)cc1 [AM 281, N-(Morpholin-1-yl)-1-(2,4-dichlorophenyl)-5-(4-iodophenyl)-4-methyl-1H-pyrazole-3-carboxamide]
CB1
  CB1 antagonist activity and selectivity: potent, CB1 selective antagonists

## Cc1c(C(=O)NN2CCCCC2)nn(-c2ccc(Cl)cc2Cl)c1-c1ccc(I)cc1 [AM-251, N-(piperidin-1-yl)-5-(4-iodophenyl)-1-(2,4-dichlorophenyl)-4-methyl-1H-pyrazole-3-carboxamide]
[1]; Newman-Keuls multiple comparison test
  period of significant differences in weight change vs vehicle: day 1 to day 24
[1]; unpaired t-test, last administration on day 11
  period of significant reductions in weight gain: day 1 until day 27
[2]; 5 mg/kg i.p., day of injection
  daily food intake: 36.7 ± 3.3 g
[2]; 5 mg/kg i.p., last day of significant reduction (day before the next drugs were given)
  daily food intake: 47.0 ± 2.5 g
[2]; 5 mg/kg i.p., starting on the day of injection
  duration of significant reduction in daily food intake: 6 days
[2]; 1 h of testing
  cumulative food intake: no intake
[2]; 2 h of testing
  cumulative food intake: 1.3 ± 0.8 g
[2]; 3 h of testing
  cumulative food intake: 3.3 ± 1.4 g
[3]; 1.25 mg/kg single dose
  weight gain or loss: 2.5 ± 2.0 g
[3]; 2.5 mg/kg single dose
  weight gain or loss: -5.1 ± 2.1 g
[3]; lowest dose, 1.25 mg/kg
  duration of weight loss compared with duration of reduced food intake: the duration of weight loss exceeded the duration of reduced food intake
[4]
  effect on body weight gain: significant slowing in weight gain
[5]
  days on which food intake was significantly reduced: days 1-4, and days 6-15
  time that reductions in food intake continued after the last treatment: five
[5]; vs vehicle, p<0.05
  duration of significant reductions in food intake after the first dose: 4 days
[6]; 3 mg/kg daily, mouse
  time of repeated daily administration after which changes in food intake were non-significant: 8 days
[6]; approximately 10 mg/kg daily
  effect of stopping daily doses: significant rebound hyperphagia and a rapid return in body weight
[7]; 1.25 mg/kg or 2.5 mg/kg single dose
  reductions in food intake, dose relation: dose dependent
[7]; 2.5 mg/kg single dose, significant starting the day of administration, p<0.001
  duration of significant reductions in food intake after the day of administration: 4 days

## CN=C(NS(=O)(=O)c1ccc(Cl)cc1)N1C[C@H](c2ccccc2)C(c2ccc(Cl)cc2)=N1 [SLV-319]
CB1
  CB1 antagonist activity and selectivity: potent, CB1 selective antagonists

## Cc1c(C(=O)NN2CCCCC2)nn(-c2ccc(Cl)cc2Cl)c1-c1ccc(Cl)cc1 [rimonabant, N-(piperidin-1-yl)-5-(4-chlorophenyl)-1-(2,4-dichlorophenyl)-4-methyl-1H-pyrazole-3-carboxamide]
[8]
  predicted half-life: 22 h
[9]; [14]
  short-term percentage preference for the primary flavor associated with drug delivery: 48%
  percentage daily preference for the flavor associated with drug delivery: 67%
[9]; rats injected twice-weekly (intragastric)
  short-term percentage preference for the primary flavor associated with drug delivery: 44%
[9]; rats injected biweekly (intragastric)
  percentage daily preference for the flavor associated with drug delivery: 50%
[10]
  frequency of protracted seizures: significantly higher frequency of protracted seizures
[11]; approximately 10 mg/kg daily
  effect of stopping daily doses: significant rebound hyperphagia and a rapid return in body weight
[11]; continued treatment, rats
  time of treatment after which the anorectic effect waned: 5 days
[12]
  most common side effects: nausea, dizziness, arthralgia and diarrhea
[4]
  effect on body weight gain: significant slowing in weight gain
[13]
  damage in response to an inflammatory stimulus vs vehicle-treated controls: significantly more damage
